These results are taken from patent US7271148B2, “Inhibition of cellular proteases” (The Board of Regents of The University of Texas System, priority 1999, dated 2007).

Assay [1] relates to p21^cip1 abundance in mock-infected LU cells. The assay can be described thus: Western blot of p21cip1 abundance in mock-infected, density-arrested LU cells. In kind it is cell-based, human. Here is the method: (§1) Cell culture and growth arrest. LU cells (3) were propagated in Eagle's minimum essential medium containing 10% fetal bovine serum and penicillin (100 units/ml)/streptomycin (100 μg/ml) in a 5% CO2 in air atmosphere. The cells were density-arrested as described previously in detail (18).
(§2) Virus stocks and productive infection. The AD169 strain of HCMV was propagated in LU cells as previously described in detail (6). The infectivity of virus stocks was determined by plaque assay (3). Virus stocks typically had infectivities between 8.0×10^6 and 4.0×10^7 plaque-forming units (PFU)/milliliter. LU cells were infected with HCMV as described in detail by Bresnahan et al. (18). Virus stocks and cell cultures were routinely examined for mycoplasma.
(§3) Western blots. Polyclonal or monoclonal antibody for p21^cip1 was obtained from Santa Cruz Biotechnology, Inc. (Santa Cruz, Calif.). Monoclonal antibodies against m-calpain, μ-calpain or calpastatin were generously provided by Dr. R. I. Mellgren (see also 75). Cells were harvested as described previously (18) by dislodging the cells with a cell lifter in phosphate buffered saline. The cells were collected by sedimentation and lysed in NP-40 lysis buffer [50 mM Tris, pH 7.4, 50 mM NaCl, 0.5% NP-40, and 1 mM NaVO3, 50 mM NaF, 1mM phenylmethylsulfonyl fluoride (PMSF), 1 mM dithiothreitol (DTT), 25 μg/ml trypsin inhibitor, 25 μg/ml aprotinin, 1 mM benzamide, and 25 μg/ml pepstatin A added just before use]. Cellular debris was removed by sedimentation and the supernatant fluids were reserved. The protein concentration was determined by the BCA protein assay (Pierce, Rockford, Ill.). Whole cell extracts (40 μg/lane) were fractionated by SDS-polyacrylamide gel electrophoresis (PAGE), and the polypeptides were transferred to nitrocellulose membranes (Bio-Rad Laboratories, Hercules, Calif.) as described previously (18). Antigen-antibody reactions were detected with the enhanced chemiluminescent assay (Amersham Pharmacia Biotech) following the manufacturer's recommendations.
FIGS. 5 and 6. The effect of MG132, an inhibitor of proteasome degradation, on p21^cip1 abundance in HCMV- or mock-infected, density-arrested LU cells. 5. LU cells were density arrested, as described in Materials and Methods. The cell cultures were HCMV (5 PFU/cell)- or mock-infected and then exposed to selected concentrations of MG132 at 24 hr PI. Cell lysates were prepared at 30 hr PI (i.e., 6 hr after […] treatment), and 40 μg of protein from each lysate was resolved by SDS-PAGE. The proteins were transferred to nitrocellulose and probed with antibodies against p21^cip1. Control, cells cultured in the absence of MG132 or its solvent, DMSO. 0, DMSO solvent control, consisting of cells treated with the same concentration of DMSO (0.1%) present in the cultural fluids containing highest concentration of MG132 (10 μM). 6. Represents the abundance of p21^cip1 after MG132 treatment determined by densitometry of the data illustrated in FIG. 5. The data for mock-infected cells (open bars) were calculated relative to the p21^cip1 abundance in untreated mock-infected cells, while the data for HCMV-infected cells (closed bars) were determined relative to the p21^cip1 abundance in untreated HCMV-infected cells.
FIGS. 7 and 8. […]
At the times indicated in the FIG., whole cell lysates were prepared, and 40 μg of protein from each lysate was analyzed by SDS-PAGE. […]
For orientation: In western blotting, separated proteins are transferred to a membrane and probed.

Assay [2] concerns p21^cip1 abundance in HCMV-infected LU cells. The assay can be described thus: Western blot of p21cip1 abundance in HCMV-infected, density-arrested LU cells. It is filed as cell-based, human. The protocol: as §1, §2
as §3, with “recommendations. […]” for “recommendations.”
FIGS. 9 and 10. The concentration effect of E64d on p21^cip1 abundance in HCMV-infected cells. 9: LU cells were density arrested as described in Materials and Methods. The cells were HCMV (5 PFU/cell) or mock infected, and at 48 hr PI were treated with selected concentrations of E64d. Whole cell lysates were prepared 6 hr later, and 40 μg of protein from each lysate was resolved by SDS-PAGE. The proteins were transferred to nitrocellulose and probed with antibodies to p21^cip1. Mock: mock-infected cells in the absence of drug. Control, untreated HCMV-infected cells. 0, DMSO solvent control, consisting of HCMV-infected cells treated with the same concentration of DMSO solvent (0.1%) contained in the highest concentration of E64d. 10: Represents the abundance of p21^cip1 determined by densitometric analysis of the data in FIG. 9.
FIGS. 11 and 12. The concentration effect of Z-Leu-Leu-H on p21^cip1 abundance in HCMV-infected cells. 11. LU cells were density arrested as described in Materials and Methods. The cells were HCMV (5 PFU/cell) infected, and at 48 hr PI were treated with selected concentrations of Z-Leu-Leu-H. Whole cell lysates were prepared 6 hr later, and 40 μg of protein from each lysate was resolved by SDS-PAGE. The proteins were transferred to nitrocellulose and probed with antibodies to p21^cip1. Mock, Control, and 0 are defined as in the legend to FIG. 9. 12 : Represents the abundance of p21^cip1 determined by densitometric analysis of the data in FIG. 11.
FIGS. 13 and 14. The time course for the effect of E64d on p21^cip1 abundance in HCMV-infected, density-arrested cells. 13: LU cells were density arrested, as described in Materials and Methods. The cells were HCMV (5 PFU/cell) or mock infected, and at the intervals indicated in the Fig., beginning 1 hr after infection, subsets of the cells were treated with E64d (100 μM). […]

Where a SMILES comes first, the peptide text is derived from it. The star is where a group is joined. Cbz = O=C(OCc1ccccc1)*

As to `CC(C)C[C@@H](C=O)NC(=O)[C@H](CC(C)C)NC(=O)[C@H](CC(C)C)NC(=O)OCc1ccccc1` [MG132] (Cbz-Leu-Leu-Leu-aldehyde), the “increase in p21^cip1 abundance relative to DMSO solvent control or cells in the absence of any chemical” value in assay [1] (MG132 10 μM, mock-infected density-arrested LU cells, densitometry of Western blot (FIGS. 5 and 6)) turned out to be 3.6 fold. Also, the “slope of the concentration effect on p21^cip1 abundance (linear regression analysis)” value is on record as 0.33 in assay [1] (mock-infected cells, MG132 0 to 10 μM, p<0.01) and 0.19 in assay [2] (HCMV-infected cells, MG132 0 to 10 μM, p<0.01). For the same compound, the “change in p21^cip1 abundance (in words)” value is listed as “concentration-dependent increase in the abundance of p21^cip1” in assay [1] (mock-infected density-arrested LU cells, MG132 0 to 10 μM) and “smaller increases in p21^cip1 abundance” in assay [2] (HCMV-infected cells, MG132 2.5 μM to 10 μM, compared with mock-infected cells).
Regarding `CC(C)CC(C=O)NC(=O)C(CC(C)C)NC(=O)OCc1ccccc1` (stereo not drawn) [Z-Leu-Leu-H], in assay [2] (100 μM, HCMV-infected cells treated at 48 hr PI, lysates 6 hr later), the “p21^cip1 abundance as % of that measured in mock-infected cells” value is listed as “about 72%”. Also, the “protection of p21^cip1, concentration effect (in words)” value in assay [2] (HCMV-infected cells treated at 48 hr PI for 6 hr, selected concentrations up to 100 μM) is on record as “protected p21^cip1 in a concentration-dependent manner”.
